Reference: patent publication US5324832A, “Muscarinic antagonists” (priority 1991, dated 1994)
Values belong to the compound of their own block, whether it stands above or below them.

How the values were obtained:
[1] = target: m1 through m4 muscarinic receptors; assay: Displacement of [3H]NMS from muscarinic receptors (m1-m4), subtype not singled out; type: binding; settings: for Ki: in the vicinity of, subtype not stated, read-out: Ki, inhibition of [3H]NMS binding; for affinity / potency at muscarinic receptors: qualitative
Description: The analogues were screened in binding assays using membranes from cells or tissues containing primarily single subtypes of m1 through m4 muscarinic receptors. Transfected A9L cells were used as a source of homogeneous populations of m1, m3, and m4 receptors. See Jones, S. V.; Barker, J. L.; Buckley, N. J.; Bonner, T. I; Brann, M. R., Mol. Pharmacol., 1988, 34, 421, which is specifically incorporated by reference herein. Rat heart tissue was the source of m2 muscarinic receptors.
A crude membrane fraction was obtained as follows. Confluent cultures were rinsed three times with phosphate-buffered saline, and lysed in a solution of 2 mM Tris-HCl (pH 7.1) and 1 mM EDTA for 30 min at 2° C. The cells were harvested by scraping and homogenized on a Polytron (10 sec, 75% mix).
(§1) Nuclei were removed in a low speed centrifugation (400 × g, 5 min) and a crude membrane preparation was obtained by centrifugation of the supernatant at 50,000 × g for 20 min. The resulting pellet was resuspended in the lysis buffer and recentrifuged at 50,000 × g for 20 min. Membranes were stored frozen at -70° C. until needed.
(§2) The total volume was 1 mL.
The incubation was terminated by rapid filtration over GF/B filters using a Brandel cell harvester. The filters were washed three times with ice-cold 0.9% NaCl, equilibrated in scintillation counting fluid and counted on a Beckmann LS 5801 liquid scintillation counter at 47% efficiency.
(§3) It was routinely subtracted from the total counts.

m1 muscarinic receptors = target: T1, m1 muscarinic receptors (Rattus norvegicus, UniProt P08482); assay: Inhibition of [3H]NMS binding, membranes of transfected A9L cells expressing m1 receptors; parameters: expressed in transfected cells; host or cells: A9L cells (obtained from Dr. M. Brann, NIH)
T1 sequence (P08482 1-460): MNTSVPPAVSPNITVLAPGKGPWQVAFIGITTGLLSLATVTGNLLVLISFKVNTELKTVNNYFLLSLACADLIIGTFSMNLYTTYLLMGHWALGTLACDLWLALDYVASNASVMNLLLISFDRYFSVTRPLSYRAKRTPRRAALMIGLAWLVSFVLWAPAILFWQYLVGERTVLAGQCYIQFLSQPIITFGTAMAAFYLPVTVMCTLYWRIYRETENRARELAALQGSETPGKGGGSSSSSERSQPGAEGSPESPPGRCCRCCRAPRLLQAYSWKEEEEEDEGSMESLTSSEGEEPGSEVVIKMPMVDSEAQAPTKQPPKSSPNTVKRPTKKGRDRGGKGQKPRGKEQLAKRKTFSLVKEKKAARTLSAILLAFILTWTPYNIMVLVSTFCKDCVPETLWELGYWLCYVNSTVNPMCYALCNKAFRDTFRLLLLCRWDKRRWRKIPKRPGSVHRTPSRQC
Method: The analogues were screened in binding assays using membranes from cells or tissues containing primarily single subtypes of m1 through m4 muscarinic receptors. Transfected A9L cells were used as a source of homogeneous populations of m1, m3, and m4 receptors. […] Rat heart tissue was the source of m2 muscarinic receptors.
A crude membrane fraction was obtained as follows. Confluent cultures were rinsed three times with phosphate-buffered saline, and lysed in a solution of 2 mM Tris-HCl (pH 7.1) and 1 mM EDTA for 30 min at 2° C.
as §1, §2
The incubation was terminated by rapid filtration over GF/B filters using a Brandel cell harvester.
as §3

muscarinic receptors = settings: in words; cited from earlier work

Ki [1]: ~1000 nM
SMILES: NCCN1CCN(CC(=O)N2c3ccccc3C(=O)Nc3cccnc32)CC1 [Compound 27, 5,11-Dihydro-11-[(4-[2-aminoethyl]-1-piperazinyl)acetyl]-6H-pyrido[2,3-b][1,4]benzodiazepine-6-one]

displacement of [3H]NMS from the receptor ([1]; in words): detectable displacement of [^3 H]NMS
SMILES: CN1CCN(CC(=O)N2c3cc(CO)ccc3C(=O)Nc3cccnc32)CC1 [Compound 16, 5,11-Dihydro-9-hydroxymethyl-11-[(4-methyl-1-piperazinyl)acetyl]-6H-pyrido[2,3-b] [1,4]benzodiazepine-6-one]

selectivity ratio m1 versus m2 receptors (m1 muscarinic receptors; in favor of m1 versus m2 receptors): 5 fold
SMILES: NCCCCCN1CCN(CC(=O)N2c3ccccc3C(=O)Nc3cccnc32)CC1 [Compound 34c]

affinity / potency at muscarinic receptors ([1]; in words): low affinity
SMILES: CN1CCN(CC(=O)N2c3ccccc3C(=O)N(CCCCCCC#N)c3cccnc32)CC1 [Compound 17b]

Ki (m1 muscarinic receptors; radioligand binding assays, read-out: affinity for m1 receptors (Ki)): 2.39 nM
SMILES: Cc1scc2c1N(C(=O)CN1CCN(CCCCCCCCCCN)CC1)c1ccccc1NC2=O [Compound 40, n=10, 4,9-Dihydro-3-methyl-4-[[4-(10-aminodecyl)-1-piperazinyl]-acetyl]-10H-thieno[3,4-b][1,5]benzodiazepin-10-one]

displacement of [3H]NMS from the receptor ([1]; in words): detectable displacement of [^3 H]NMS
SMILES: CSc1ccc2c(c1)C(=O)Nc1cccnc1N2C(=O)CN1CCN(C)CC1 [Compound 11a]

Ki [1]: ~1000 nM
receptor subtype selectivity ([1]; in words, m1 versus m2 / among subtypes): non-selective
SMILES: C#CCN1CCN(CC(=O)N2c3ccccc3C(=O)Nc3cccnc32)CC1 [Compound 22, 5,11-Dihydro-11-[(4-propargyl-1-piperazinyl)acetyl]-6H-pyrido[2,3-b][1,4]benzodiazepine-6-one]

SMILES: CCN(CC)CCCCC1CCN(CC(=O)N2c3ccccc3C(=O)Nc3cccnc32)CC1 [AQ-RA 741]
muscarinic receptor selectivity (literature) (muscarinic receptors): selective for M2 receptors

selectivity ratio / factor for m1 receptors (m1 muscarinic receptors; m1 versus m2 receptors): 25
SMILES: Cc1scc2c1N(C(=O)CN1CCN(C)CC1)c1ccccc1NC2=O [telenzepine]
muscarinic receptor selectivity (literature) (muscarinic receptors): preserve selectivity for m1 receptors
potency as muscarinic antagonist relative to pirenzepine (literature) (muscarinic receptors): more potent antagonist

Ki [1]: ~1000 nM
SMILES: CC(=O)NCCN1CCN(CC(=O)N2c3ccccc3C(=O)Nc3cccnc32)CC1 [Compound 28]

SMILES: COc1ccccc1CNCCCCCCNCCCCCCCCNCCCCCCNCc1ccccc1OC [methoctramine]
muscarinic receptor selectivity (literature) (muscarinic receptors): m2-selective muscarinic antagonist

SMILES: NCCCCCCCCCN1CCN(CC(=O)N2c3ccccc3C(=O)Nc3cccnc32)CC1 [Compound 34g]
affinity / potency at muscarinic receptors ([1]; in words): higher affinities than the corresponding derivatives with the small neutral acetylamino terminal group (35g and 35h)

Ki [1]: ~1000 nM
SMILES: O=C1Nc2cccnc2N(C(=O)CN2CCN(CCO)CC2)c2ccccc21 [Compound 25, 5,11-Dihydro-11-[(4-[2-hydroxyethyl]-1-piperazinyl)acetyl]-6H-pyrido[2,3-b][1,4]benzodiazepine-6-one]

affinity / potency at muscarinic receptors ([1]; in words): low affinity
SMILES: CCN1C(=O)c2ccccc2N(C(=O)CN2CCN(C)CC2)c2ncccc21 [Compound 17a, 5-Ethyl-11-hydro-[(4-methyl-1-piperazinyl)acetyl]-6H-pyrido[2,3-b][1,4]-benzodiazepine-6-one]
